# Measured values from PubChem BioAssay (NCI).
#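 Each compound was tested at five concentrations against cells in 96-well plates for 48 hours. GI50 = concentration required for 50% inhibition of growth. The concentration for full growth arrest is given as TGI.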
# What was measured:
# Test in all cases: inhibition of tumour cell growth, NCI panel, 48 h
# CCRF-CEM leukemia = tested on: CCRF-CEM leukemia
# ACHN renal = tested on: ACHN renal
# SK-OV-3 ovarian = tested on: SK-OV-3 ovarian
# KM12 colon = tested on: KM12 colon
# NCI-H226 lung = tested on: NCI-H226 lung
# SNB-75 CNS = tested on: SNB-75 CNS
# UACC-62 melanoma = tested on: UACC-62 melanoma
# SF-295 CNS = tested on: SF-295 CNS
# A498 renal = tested on: A498 renal
# HOP-62 NSCLC = tested on: HOP-62 NSCLC
# HL-60(TB) leukemia = tested on: HL-60(TB) leukemia
# UACC-257 melanoma = tested on: UACC-257 melanoma
# HCT-15 colon = tested on: HCT-15 colon
# OVCAR-8 ovarian = tested on: OVCAR-8 ovarian
# HCT-116 colon = tested on: HCT-116 colon
# NCI/ADR-RES ovarian = tested on: NCI/ADR-RES ovarian
# RPMI-8226 leukemia = tested on: RPMI-8226 leukemia
# NCI-H460 lung = tested on: NCI-H460 lung
# IGROV1 ovarian = tested on: IGROV1 ovarian
# MCF7 breast = tested on: MCF7 breast
# CAKI-1 renal = tested on: CAKI-1 renal
# MALME-3M melanoma = tested on: MALME-3M melanoma
# SK-MEL-28 melanoma = tested on: SK-MEL-28 melanoma
# MDA-MB-435 = tested on: MDA-MB-435
# HCC-2998 colon = tested on: HCC-2998 colon
# U251 CNS = tested on: U251 CNS
# SW-620 colon = tested on: SW-620 colon
# K-562 leukemia = tested on: K-562 leukemia
# RXF 393 renal = tested on: RXF 393 renal
# A549 NSCLC = tested on: A549 NSCLC
# COLO 205 colon = tested on: COLO 205 colon
# 786-0 renal = tested on: 786-0 renal
# SN12C renal = tested on: SN12C renal
# MDA-MB-231 breast = tested on: MDA-MB-231 breast
# HS 578T breast = tested on: HS 578T breast
# DU-145 prostate = tested on: DU-145 prostate
# MOLT-4 leukemia = tested on: MOLT-4 leukemia
# HOP-92 NSCLC = tested on: HOP-92 NSCLC
# HT29 colon = tested on: HT29 colon
# OVCAR-5 ovarian = tested on: OVCAR-5 ovarian
# SK-MEL-5 melanoma = tested on: SK-MEL-5 melanoma
# M14 melanoma = tested on: M14 melanoma
# LOX IMVI melanoma = tested on: LOX IMVI melanoma
# UO-31 renal = tested on: UO-31 renal
# NCI-H522 lung = tested on: NCI-H522 lung
# SF-539 CNS = tested on: SF-539 CNS
# NCI-H23 lung = tested on: NCI-H23 lung
# TK-10 renal = tested on: TK-10 renal
# PC-3 prostate = tested on: PC-3 prostate
# SNB-19 CNS = tested on: SNB-19 CNS
# OVCAR-4 ovarian = tested on: OVCAR-4 ovarian
# SK-MEL-2 melanoma = tested on: SK-MEL-2 melanoma
# T-47D breast = tested on: T-47D breast
# EKVX NSCLC = tested on: EKVX NSCLC
# SF-268 CNS = tested on: SF-268 CNS
# BT-549 breast = tested on: BT-549 breast
# OVCAR-3 ovarian = tested on: OVCAR-3 ovarian
structure (smiles),measurement,setting,value
O=C1/C(=C/c2ccc([N+](=O)[O-])cc2)CN(C(=O)CCN2CCC(=NO)CC2)C/C1=C\c1ccc([N+](=O)[O-])cc1,GI50,CCRF-CEM leukemia,0.534 µM
same,TGI,CCRF-CEM leukemia,9.93 µM
same,GI50,ACHN renal,0.893 µM
same,TGI,ACHN renal,2.46 µM
same,GI50,SK-OV-3 ovarian,5.96 µM
same,TGI,SK-OV-3 ovarian,17.4 µM
same,GI50,KM12 colon,0.448 µM
same,TGI,KM12 colon,1.18 µM
same,GI50,NCI-H226 lung,2.03 µM
same,TGI,NCI-H226 lung,5.41 µM
same,GI50,SNB-75 CNS,1.95 µM
same,TGI,SNB-75 CNS,9.05 µM
same,GI50,UACC-62 melanoma,0.866 µM
same,TGI,UACC-62 melanoma,2.49 µM
same,GI50,SF-295 CNS,2.09 µM
same,TGI,SF-295 CNS,5.39 µM
same,GI50,A498 renal,1.75 µM
same,TGI,A498 renal,3.95 µM
same,GI50,HOP-62 NSCLC,1.91 µM
same,TGI,HOP-62 NSCLC,6.97 µM
same,GI50,HL-60(TB) leukemia,1.85 µM
same,TGI,HL-60(TB) leukemia,6.88 µM
same,GI50,UACC-257 melanoma,2.43 µM
same,TGI,UACC-257 melanoma,7.97 µM
same,GI50,HCT-15 colon,0.771 µM
same,TGI,HCT-15 colon,3.9 µM
same,GI50,OVCAR-8 ovarian,0.806 µM
same,TGI,OVCAR-8 ovarian,5.5 µM
same,GI50,HCT-116 colon,0.552 µM
same,TGI,HCT-116 colon,1.53 µM
same,GI50,NCI/ADR-RES ovarian,1.49 µM
same,TGI,NCI/ADR-RES ovarian,17.8 µM
same,GI50,RPMI-8226 leukemia,0.368 µM
same,TGI,RPMI-8226 leukemia,1.6 µM
same,GI50,NCI-H460 lung,1.15 µM
same,TGI,NCI-H460 lung,3.95 µM
same,GI50,IGROV1 ovarian,0.817 µM
same,TGI,IGROV1 ovarian,2.75 µM
same,GI50,MCF7 breast,0.431 µM
same,TGI,MCF7 breast,2.87 µM
same,GI50,CAKI-1 renal,0.756 µM
same,TGI,CAKI-1 renal,2.39 µM
same,GI50,MALME-3M melanoma,2.04 µM
same,TGI,MALME-3M melanoma,6.9 µM
same,GI50,SK-MEL-28 melanoma,1.93 µM
same,TGI,SK-MEL-28 melanoma,4.72 µM
same,GI50,MDA-MB-435,1 µM
same,TGI,MDA-MB-435,3.45 µM
same,GI50,HCC-2998 colon,1 µM
same,TGI,HCC-2998 colon,2.62 µM
same,GI50,U251 CNS,0.509 µM
same,TGI,U251 CNS,2.03 µM
same,GI50,SW-620 colon,0.311 µM
same,TGI,SW-620 colon,0.982 µM
same,GI50,K-562 leukemia,0.216 µM
same,TGI,K-562 leukemia,> 60.9 µM
same,GI50,RXF 393 renal,1.49 µM
same,TGI,RXF 393 renal,3.14 µM
same,GI50,A549 NSCLC,2.85 µM
same,TGI,A549 NSCLC,12.4 µM
same,GI50,COLO 205 colon,2.33 µM
same,TGI,COLO 205 colon,5.93 µM
same,GI50,786-0 renal,1.06 µM
same,TGI,786-0 renal,3.66 µM
same,GI50,SN12C renal,0.677 µM
same,TGI,SN12C renal,2.51 µM
same,GI50,MDA-MB-231 breast,0.869 µM
same,TGI,MDA-MB-231 breast,2.92 µM
same,GI50,HS 578T breast,1.98 µM
same,TGI,HS 578T breast,9.86 µM
same,GI50,DU-145 prostate,1.61 µM
same,TGI,DU-145 prostate,4.65 µM
same,GI50,MOLT-4 leukemia,0.409 µM
same,TGI,MOLT-4 leukemia,> 20 µM
same,GI50,HOP-92 NSCLC,2.81 µM
same,TGI,HOP-92 NSCLC,9.36 µM
same,GI50,HT29 colon,0.477 µM
same,TGI,HT29 colon,1.93 µM
same,GI50,OVCAR-5 ovarian,1.57 µM
same,TGI,OVCAR-5 ovarian,3.97 µM
same,GI50,SK-MEL-5 melanoma,1.99 µM
same,TGI,SK-MEL-5 melanoma,4.38 µM
same,GI50,M14 melanoma,1.51 µM
same,TGI,M14 melanoma,6.4 µM
same,GI50,LOX IMVI melanoma,0.296 µM
same,TGI,LOX IMVI melanoma,0.739 µM
same,GI50,UO-31 renal,1.14 µM
same,TGI,UO-31 renal,2.55 µM
same,GI50,NCI-H522 lung,0.86 µM
same,TGI,NCI-H522 lung,3.28 µM
same,GI50,SF-539 CNS,0.969 µM
same,TGI,SF-539 CNS,2.91 µM
same,GI50,NCI-H23 lung,1.53 µM
same,TGI,NCI-H23 lung,4.58 µM
same,GI50,TK-10 renal,2.01 µM
same,TGI,TK-10 renal,6.14 µM
same,GI50,PC-3 prostate,0.583 µM
same,TGI,PC-3 prostate,2.38 µM
same,GI50,SNB-19 CNS,1.08 µM
same,TGI,SNB-19 CNS,5.13 µM
same,GI50,OVCAR-4 ovarian,1.31 µM
same,TGI,OVCAR-4 ovarian,5.36 µM
same,GI50,SK-MEL-2 melanoma,4.74 µM
same,TGI,SK-MEL-2 melanoma,16.6 µM
same,GI50,T-47D breast,1.84 µM
same,TGI,T-47D breast,9.27 µM
same,GI50,EKVX NSCLC,2.3 µM
same,TGI,EKVX NSCLC,10.1 µM
same,GI50,SF-268 CNS,1.07 µM
same,TGI,SF-268 CNS,6.01 µM
same,GI50,BT-549 breast,1.71 µM
same,TGI,BT-549 breast,4.32 µM
same,GI50,OVCAR-3 ovarian,0.801 µM
same,TGI,OVCAR-3 ovarian,2.31 µM
